Measured values reported in patent US11691992B2 (Anacor Pharmaceuticals, Inc., priority 2017, dated 2023).
Read-outs that look alike come from different tables or passages of the source.

Key:
Format in all cases: cell-based
[1] = tested on: IL3000 T. congolense (drug sensitive) strain; experiment: In vitro Alamar Blue 72 h drug sensitivity assay for T. congolense; conditions: Trypanosoma congolense; for IC50: bloodstream form, 69 h + 3 h resazurin, 34° C., classes A-C, read-out: IC50: I Org. Growth T. congolense IL-3000, 3 d
Procedure, shortened: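 Bloodstream-form trypanosomes in HMI medium with 20% bovine serum, exposed to compound for 69 h at 34 °C, 5% CO2, then resazurin for 3 h more. Fluorescence read at 536/588 nm. IC50 from 11-point sigmoidal dose-response curves, at least three independent runs.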

[2] = tested on: STIB719/ILRAD560 T. vivax (drug sensitive) strain; experiment: Ex vivo Alamar Blue 48 h drug sensitivity assay for T. vivax; conditions: Trypanosoma vivax, ex vivo bloodstream forms from mouse, 45 hrs + 3 hrs resazurin, read-out: IC50: I Hypoxanthine Incorporation T. vivax STIB 719/ILRA D 560, 2 d
Description: Example 109. Ex Vivo Alamar Blue 48 h Drug Sensitivity Assay for T. vivax
[…] Test compounds were prepared as 10 mg/mL DMSO stocks for each assay run. Compounds were assayed in at least three separate, independent test runs and an 11-point dilution curve was used to determine the IC50 values. Bloodstream form trypanosomes were propagated and harvested from a highly parasitemic mouse (via cardiac puncture) and were incubated with test compounds for 45 hrs at 37° C. in a humidified atmosphere containing 5% CO2, supported in HMI media containing 20% bovine serum. […] Plates were then read using a fluorescent plate reader (Spectramax, Gemini XS, Bucher Biotec, Basel, Switzerland) using an excitation wavelength of 536 nm and an emission wavelength of 588 nm. Data points were averaged to generate sigmoidal dose-response curves and IC50 values were determined using Softmax Pro 5.2 software.

[3] = tested on: bloodstream forms of T. b. rhodesiense STIB 900; experiment: T. brucei rhodesiense STIB 900 growth inhibition assay; conditions: Trypanosoma brucei, 72 h
Procedure, shortened: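 Bloodstream-form STIB 900 (10^4/well) were cultured in supplemented MEM with 15% horse serum and compound (90 to 0.123 μg/ml, 3-fold steps) for 72 h at 37 °C, 5% CO2. Viability was read by Alamar Blue fluorescence (ex 536/em 588 nm) after a further 2-4 h.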

[4] = tested on: L. infantum MHOM/MA(BE)/67 amastigotes in primary peritoneal mouse macrophages; experiment: Leishmania infantum intracellular amastigote assay in mouse macrophages; conditions: Macrophage, 120 h
Procedure, shortened: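 Amastigotes harvested from infected hamster spleen infected primary peritoneal mouse macrophages (5×10^5 amastigotes/well, 2 h, 37 °C). Compounds then present 5 d at 37 °C, 5% CO2. Parasite burden counted by microscopy after Giemsa staining, as % of untreated controls; IC50 from sigmoidal variable-slope fit.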

[5] = tested on: Trypanosoma brucei rhodesiense STIB 900 strain; experiment: Trypanosoma brucei rhodesiense STIB 900 screening assay; conditions: STIB 900 bloodstream forms, 72 h, Alamar Blue, protocol of Example 114, read-out: Swiss TPH T b rhodesiense IC50
Description: Example 114. Trypanosoma brucei rhodesiense STIB 900 Screening Assay Procedure
The Trypanosoma brucei rhodesiense STIB 900 strain was isolated in 1982 from a human patient in Tanzania and after several mouse passages cloned and adapted to axenic culture conditions (Baltz, et al., EMBO Journal 4: 1273-1277 (1985); Thuita, et al., Acta Tropica 108: 6-10 (2008)). Minimum Essential Medium (50 μL) supplemented with 25 mM HEPES, 1 g/L additional glucose, 1% MEM non-essential amino acids (100×), 0.2 mM 2-mercaptoethanol, 1 mM Na-pyruvate and 15% heat inactivated horse serum was added to each well of a 96-well microtiter plate. Serial drug dilutions of seven 3-fold steps covering a range from 90 to 0.123 μg/mL were prepared. Then 10^4 bloodstream forms of T. b. rhodesiense STIB 900 in 50 μL was added to each well and the plate incubated at 37° C. under a 5% CO2 atmosphere for 72 h. 10 μL Alamar Blue (resazurin, 12.5 mg in 100 mL double-distilled water) was then added to each well and incubation continued for a further 2-4 h (Raz, et al., Acta Tropica 68: 139-47 (1997)). Then the plates were read with a Spectramax Gemini XS microplate fluorometer (Molecular Devices Corporation, Sunnyvale, Calif., USA) using an excitation wavelength of 536 nm and an emission wavelength of 588 nm. Data were transferred into the graphic program Softmax Pro (Molecular Devices), which calculated IC50 values.

[6] = tested on: bloodstream-form trypanosome T. brucei brucei 427 strain; experiment: Trypanosoma brucei brucei high-throughput screening assay (resazurin)
Description: Example 105. Trypanosoma brucei brucei High-Throughput Screening Assay Procedure
All experiments were conducted with the bloodstream-form trypanosome T. brucei brucei 427 strain obtained from Seattle Biomedical Research Institute (Seattle, Wash.). Parasites were cultured in T-25 vented cap flasks and kept in humidified incubators at 37° C. and 5% CO2. The parasite culture media was complete HMI-9 medium containing 10% FBS, 10% Serum Plus medium and penicillin/streptomycin. To ensure log growth phase, trypanosomes were sub-cultured at appropriate dilutions every 2-3 days. Approximately 50 microliters of log phase cultures were diluted 1:10 in HMI-9 and 10 μL of the diluted culture was removed and counted using a hemocytometer to determine parasite concentration. Parasites were diluted by addition of an appropriate volume of HMI-9 to achieve a final parasite concentration of 2×10^5/mL. Compounds of the invention to be tested were serially diluted in DMSO and 0.5 μL added to 49.5 μL HMI-9 in triplicate 96-well plates using a Biomek NX liquid handler. Parasites from the diluted stock were added to each well (50 μL) using a Multidrop 384 dispenser to give a final concentration of 1.0×10^5/ml parasites in […] for DMSO. Trypanosomes were incubated with compounds for 72 hrs at 37° C. with 5% CO2. Resazurin (20 μL of 12.5 mg/ml stock) from Sigma-Aldrich was added to each well and plates were incubated for an additional 2-4 hrs. Assay plates were read using an EnVision plate reader at an excitation wavelength of 544 nm and emission of 590 nm. Triplicate data points were averaged to generate sigmoidal dose response curve and determine IC50 values using XLfit curve fitting software from IDBS (Guildford, UK).

[7] = bloodstream forms, Alamar Blue, protocol of Example 110, read-out: IC50: I Org. Growth T. brucei rhodesiense STIB 900, 3 d
[8] = amastigotes in primary peritoneal mouse macrophages, 5 d, Giemsa staining, read-out: Inhibition of Organism Growth in Leishmania infantum MHOM/MA/BE/67, 5 d
[9] = bloodstream form, 72 hrs incubation, resazurin, read-out: IC50: I Org. Growth T. brucei brucei SBRI 427, 3 d
[10] = read-out: IC50: I Org. Growth T. brucei rhodesiense STIB 900, 3 d [uM]
[11] = read-out: Inhibition of Organism Growth in Leishmania infantum MHOM/MA/BE/67, 5 d [uM]
[12] = 72 h, read-out: IC50: I Org. Growth T. brucei brucei SBRI 427, 3 d [uM]

SMILES	IC50 [1] [nM]	IC50 [2] [nM]	IC50 [3, 7] [µM]	IC50 [4, 8] [µM]	IC50 [5] [nM]	IC50 [6, 9] [µM]	IC50 [3, 10] [µM]	inhibition at 1 µM ([1]; read-out: inhibition of T. congolense IL-3000 growth at a concentration of 1.0 μM (classes D, E)) [%]	IC50 [4, 11] [µM]	IC50 [6, 12] [µM]
Cc1c(C(=O)Nc2ccc3c(c2)B(O)OC3)nnn1-c1cccc(C(F)(F)F)n1 [Example 48, N-(1-hydroxy-1,3-dihydrobenzo[c][1,2]oxaborol-6-yl)-5-methyl-1-(6-(trifluoromethyl)pyridin-2-yl)-1H-1,2,3-triazole-4-carboxamide]	100 to 300	201 to 500								
COCc1c(C(=O)Nc2ccc3c(c2)B(O)OC3)nnn1-c1ccccn1 [Example 53, N-(1-hydroxy-1,3-dihydrobenzo[c][1,2]oxaborol-6-yl)-5-(methoxymethyl)-1-(pyridin-2-yl)-1H-1,2,3-triazole-4-carboxamide]	< 100	< 200								
O=C(Nc1ccc2c(c1)B(O)OC2)c1nnn(-c2ccccn2)c1C1CC1 [Example 54, 5-cyclopropyl-N-(1-hydroxy-1,3-dihydrobenzo[c][1,2]oxaborol-6-yl)-1-(pyridin-2-yl)-1H-1,2,3-triazole-4-carboxamide]	< 100	201 to 500								
O=C(Nc1ccc2c(c1)B(O)OC2)c1nnn(-c2ccccn2)c1CO [Example 55, N-(1-hydroxy-1,3-dihydrobenzo[c][1,2]oxaborol-6-yl)-5-(hydroxymethyl)-1-(pyridin-2-yl)-1H-1,2,3-triazole-4-carboxamide]	< 100	< 200								
O=C(Nc1ccc2c(c1)B(O)OC2)c1nnn(-c2ccccn2)c1CC(F)(F)F [Example 56, N-(1-hydroxy-1,3-dihydrobenzo[c][1,2]oxaborol-6-yl)-1-(pyridin-2-yl)-5-(2,2,2-trifluoroethyl)-1H-1,2,3-triazole-4-carboxamide]	100 to 300	201 to 500								
O=C(Nc1ccc2c(c1)B(O)OC2)c1cn(-c2ncccc2Cl)nn1 [Example 58, 1-(3-Chloropyridin-2-yl)-N-(1-hydroxy-1,3-dihydrobenzo[c][1,2]oxaborol-6-yl)-1H-1,2,3-triazole-4-carboxamide]	< 100	< 200	< 0.1	3 to 19.9	< 100					
O=C(Nc1ccc2c(c1)B(O)OC2)c1cn(-c2ccc(Cl)cn2)nn1 [Example 59, 1-(5-Chloropyridin-2-yl)-N-(1-hydroxy-1,3-dihydrobenzo[c][1,2]oxaborol-6-yl)-1H-1,2,3-triazole-4-carboxamide]	< 100	201 to 500	0.1 to 0.3	3 to 19.9	< 100					
CC1(C)OB(O)c2cc(NC(=O)c3cn(-c4ccccn4)nn3)ccc21 [Example 62, N-(1-hydroxy-3,3-dimethyl-1,3-dihydrobenzo[c][1,2]oxaborol-6-yl)-1-(pyridin-2-yl)-1H-1,2,3-triazole-4-carboxamide]	310 to 100000	510 to 10000	0.31 to 10	20 to 100	260 to 2000					
Cc1nn(-c2ccccc2)nc1C(=O)Nc1ccc2c(c1)B(O)OC2 [Example 72, N-(1-hydroxy-1,3-dihydrobenzo[c][1,2]oxaborol-6-yl)-5-methyl-2-phenyl-2H-1,2,3-triazole-4-carboxamide]	< 100	201 to 500	0.1 to 0.3	3 to 19.9	< 100					
Cn1nc(C(=O)Nc2ccc3c(c2)B(O)OC3)nc1-c1ccccn1 [Example 80, N-(1-hydroxy-1,3-dihydrobenzo[c][1,2]oxaborol-6-yl)-1-methyl-5-(pyridin-2-yl)-1H-1,2,4-triazole-3-carboxamide]	100 to 300		0.1 to 0.3	< 3		< 0.075				
Cc1c(C(=O)Nc2ccc3c(c2)B(O)OC3)nnn1-c1ncccc1Cl [Example 82, 1-(3-Chloropyridin-2-yl)-N-(1-hydroxy-1,3-dihydrobenzo[c][1,2]oxaborol-6-yl)-5-methyl-1H-1,2,3-triazole-4-carboxamide]	< 100	< 200	0.1 to 0.3	3 to 19.9	100 to 250					
Cc1c(C(=O)Nc2ccc3c(c2)B(O)OC3)nnn1-c1ccc(Cl)cn1 [Example 83, 1-(5-Chloropyridin-2-yl)-N-(1-hydroxy-1,3-dihydrobenzo[c][1,2]oxaborol-6-yl)-5-methyl-1H-1,2,3-triazole-4-carboxamide]	< 100	510 to 10000	< 0.1	< 3	< 100					
O=C(Nc1ccc2c(c1)B(O)OC2)c1nc(-c2ccccn2)n[nH]1 [Example 94, N-(1-hydroxy-1,3-dihydrobenzo[c][1,2]oxaborol-6-yl)-3-(pyridin-2-yl)-1H-1,2,4-triazole-5-carboxamide]							< 0.1	> 75	3 to 19.9	< 0.075
O=C(Nc1ccc2c(c1)B(O)OC2)c1nc(-c2ccc(F)cc2)n[nH]1 [Example 99, 3-(4-Fluorophenyl)-N-(1-hydroxy-1,3-dihydrobenzo[c][1,2]oxaborol-6-yl)-1H-1,2,4-triazole-5-carboxamide]							0.1 to 0.3		< 3	< 0.075
Cn1nc(C(=O)Nc2ccc3c(c2)B(O)OC3)nc1-c1ccccc1 [Example 102, N-(1-Hydroxy-1,3-dihydrobenzo[c][1,2]oxaborol-6-yl)-1-methyl-5-phenyl-1H-1,2,4-triazole-3-carboxamide]			< 0.1	< 3		0.075 to 0.15				
